Tests used:
[1] = molecular target: muscarinischen Rezeptoren (Großhirnrinde); assay: Receptor binding test, ³H-NMS displacement, cerebral cortex homogenate; parameters: species or system Sprague-Dawley-Ratten; details: rat cerebral cortex homogenate; 0,3 n molar ³H-NMS; 30°C, 45 min; read-out: Rezeptor-Bindungs-Tests IC₅₀ Cortex
Method: (§1) Das Gesamtherz wurde […] Organe wurden abschließend in einem Potter homogenisiert. […] Die Inkubation der Organhomogenate erfolgte bei einer bestimmten Konzentration des Radioliganden und […] Testsubstanzen im Eppendorf-Zentrifugenröhrchen bei 30°C. Die Inkubationsdauer betrug 45 Minuten. Als Radioligand wurde 0,3 n molar 3H-N-Methylscopolamin (3H-NMS) verwendet. Die Inkubation wurde durch Zugabe von […] Puffer mit nachfolgender Vakuumfiltration beendet. Die Filter […] Puffer gespült und […] Summe von spezifischer und unspezifischer Bindung von 3H-NMS. Der Anteil der unspezifischen Bindung wurde definiert als jene Radioaktivität, die in Anwesenheit von 1 μ molar Quinuclidinylbenzilat gebunden wurde. […]. Die IC50-Werte der nicht-markierten Testsubstanzen […] jene Konzentration der Testsubstanz, bei welcher die spezifische Bindung von 3H-NMS an die muscarinischen Rezeptoren in den verschiedenen Organen um 50 % gehemmt wurde. Die Ergebnisse sind aus der Tabelle 1 zu […].

[2] = molecular target: T1, muscarinischen Rezeptoren (Gesamtherz) (Rattus norvegicus, UniProt P10980); assay: Receptor binding test, ³H-NMS displacement, whole heart homogenate; parameters: species or system Sprague-Dawley-Ratten; details: 0,3 n molar ³H-NMS, 30°C, 45 min, read-out: Rezeptor-Bindungs-Tests IC₅₀ Herz
T1 construct: Das Gesamtherz wurde mit einer Schere zerkleinert; from tissue; host or cells: rat whole heart homogenate
T1 sequence (P10980 1-466): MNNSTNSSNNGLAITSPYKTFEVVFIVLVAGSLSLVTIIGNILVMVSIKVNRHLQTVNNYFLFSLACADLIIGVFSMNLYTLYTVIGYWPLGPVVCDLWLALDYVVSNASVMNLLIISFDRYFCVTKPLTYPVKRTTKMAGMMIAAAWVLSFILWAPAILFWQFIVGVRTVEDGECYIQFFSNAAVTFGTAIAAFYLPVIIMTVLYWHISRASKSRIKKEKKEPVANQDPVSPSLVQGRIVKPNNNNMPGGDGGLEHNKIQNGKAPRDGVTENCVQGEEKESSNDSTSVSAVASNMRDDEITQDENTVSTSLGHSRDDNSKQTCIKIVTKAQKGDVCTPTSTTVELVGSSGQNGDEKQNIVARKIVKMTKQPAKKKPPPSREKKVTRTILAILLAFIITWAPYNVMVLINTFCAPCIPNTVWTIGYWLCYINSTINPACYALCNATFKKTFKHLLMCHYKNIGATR
Method: as §1

vagale Bradykardie (M₂) = assay: M1/M2 selectivity in the rat: inhibition of bradycardia evoked by vagus stimulation; type: in vivo, THOM-Ratten; details: i.v., dose reducing vagal bradycardia (M₂) by 50%, 5 min after injection
Method: (§2) Die angewandte Methode wurde von Hammer und Giachetti (Life Sciences 31, 2991-2998 (1982)) beschrieben. 5 Minuten nach intravenöser Injektion steigender Dosen der Substanz wurden entweder der rechte Vagus elektrisch stimuliert (Frequenz: 25 Hz; Pulsbreite: 2ms; Reizdauer: 30s; Voltzahl: supramaximal) oder 0,3 mg/kg McN-A-343 in männliche THOM-Ratten intravenös injiziert. Die durch Vagusstimulation hervorgerufene Bradykardie und der durch McN-A-343 verursachte Blutdruckanstieg wurden bestimmt. Die Dosis der Substanzen, die entweder die vagale Bradykardie (M₂) oder den Blutdruckanstieg (M₁) um 50% verminderte, wurde graphisch ermittelt. Ergebnisse siehe Tabelle II.

Blutdruckanstieg (M₁) = assay: M1/M2 selectivity in the rat: inhibition of blood pressure rise caused by McN-A-343; type: in vivo, THOM-Ratten; details: i.v., dose reducing blood pressure rise (M₁) caused by 0,3 mg/kg McN-A-343 by 50%
Method: as §2

Speichelsekretion = assay: Inhibition of pilocarpine-induced salivation in the rat; type: in vivo, THOM-Ratten; details: urethane-anaesthetised rat, i.v.; dose reducing saliva volume by 50%; 2 mg/kg pilocarpine s.c.
Method: Nach Lavy und Mulder (Arch. int. Pharmacodyn. 178, 437-445, (1969)) erhielten mit 1,2 g/kg Urethan narkotisierte männliche THOM-Ratten steigende Dosen der Substanz i.v.. Die Speichelsekretion wurde durch s.c. Gabe von 2 mg/kg Pilocarpin ausgelöst. Der Speichel wurde mit Fließpapier aufgesaugt, die von ihm eingenommene Fläche alle 5 Minuten planimetrisch bestimmt. Die Dosis der Substanz, die das Speichelvolumen um 50% verminderte, wurde graphisch ermittelt.

Herzfrequenz = assay: Inhibition of the acetylcholine effect on heart rate of the guinea pig; type: in vivo, Meerschweinchen; details: anaesthetised guinea pig; 10 µg/kg acetylcholine 5 min after test substance; heart rate (ECG)
Method: (§3) Am narkotisierten Meerschweinchen wurden 5 Minuten nach Gabe der Prüfsubstanz 10 µg/kg Acetylcholin intravenös als auch gleichzeitig intraarteriell injiziert. Dabei wurde die Herzfrequenz durch extrakorporale Ableitung des EKG, der Ausatemwiderstand nach Konzett-Rößler und die Kontraktion der freigelegten Harnblase direkt registriert. Für die Hemmung der Acetylcholinwirkung an den untersuchten Organen wurden Dosis-Wirkungskurven aufgenommen und daraus -log ED₅₀-Werte bestimmt. Ergebnisse siehe Tabelle III.

Bronchien = assay: Inhibition of the acetylcholine effect on bronchi of the guinea pig; type: in vivo, Meerschweinchen; details: anaesthetised guinea pig; 10 µg/kg acetylcholine 5 min after test substance; expiratory resistance (Konzett-Rößler)
Method: as §3, with “bestimmt.” for “bestimmt. Ergebnisse siehe Tabelle III.”

Blase = assay: Inhibition of the acetylcholine effect on bladder of the guinea pig; type: in vivo, Meerschweinchen; details: anaesthetised guinea pig; 10 µg/kg acetylcholine 5 min after test substance; contraction of exposed urinary bladder
Method: as §3

| SMILES | IC50 [1] [nM] | IC50 [2] [nM] | -log ED₅₀ Herz (vagale Bradykardie (M₂)) [Mkg⁻¹] | -log ED₅₀ Blutdruck (Blutdruckanstieg (M₁)) [Mkg⁻¹] | -log ED₅₀ Salivation (Speichelsekretion) [Mkg⁻¹] | -log ED₅₀ Herz (Herzfrequenz) [Molkg⁻¹] | -log ED₅₀ Bronchien (Bronchien) [Molkg⁻¹] | -log ED₅₀ Blase (Blase) [Molkg⁻¹] |
| --- | --- | --- | --- | --- | --- | --- | --- | --- |
| O=C1Nc2cccnc2N(C(=O)CCCCCN2CCCCC2)c2ccccc21 [A, 5,11-Dihydro-11-[6-(1-piperidinyl)-1-oxohexyl]-6H-pyrido[2,3-b][1,4]benzodiazepin-6-on] | 60 | 10 | 7.75 | 6.42 | 6.65 | 6.88 | 7.49 | 6.20 |
| CCN(CC)CC1CCCCN1CC(=O)N1c2ccccc2C(=O)Nc2cccnc21 (stereo not drawn) [B, 11-[[2-[(Diethylamino)methyl]-1-piperidinyl]acetyl]-5,11-dihydro-6H-pyrido[2,3-b][1,4]benzodiazepin-6-on] | 1200 | 140 | 6.42 | 5.63 | 5.00 | 5.84 | 5.58 | 4.73 |
| CN1CCN(CC(=O)N2c3ccccc3C(=O)Nc3cccnc32)CC1 [C, 5,11-Dihydro-11-[(4-methyl-1-piperazinyl)acetyl]-6H-pyrido[2,3-b][1,4]benzodiazepin-6-on] | – | – | – | – | 6.22 | 5.85 | 6.57 | 5.36 |
| CN1[C@@H]2CC[C@H]1C[C@@H](OC(=O)C(CO)c1ccccc1)C2 (stereo partly drawn) [D, Atropin] | – | – | 7.94 | 7.34 | – | 7.70 | – | 7.03 |

Reference: patent publication EP0326066A2, “Condensed diazepinones, process for their preparation and medicaments containing them” (Dr. Karl Thomae GmbH, priority 1988, dated 1989)
